Experimental data reported in patent US20040220149A1, “Nerve cell survival promoters containing cyclic phosphatidic acid derivative” (priority 2001, published 2004).

Experiments:
Format in all cases: cell-based
[1] = test system: NIH-3T3, a mouse-derived fibroblast cell; assay: Formation of actin stress fiber in NIH-3T3 by addition of lysophospholipids; settings: 10 μM lipid, 37° C., 30 minutes, serum-starved NIH-3T3, Rhodamine phalloidin staining; control without lipid: no stress fiber
Protocol: (A-5) Formation of Stress Fiber in NIH-3T3 by Addition of Various Lysophospholipids
NIH-3T3, a mouse-derived fibroblast cell, was incubated in a Dulbecoo's Modified Eagle's Medium (DMEM) containing 10% fetal bovine serum (FBS; made by Moregate), and was used in the Experiment. 2.5×10^4 cells of the NIH-3T3 were inoculated in a petri dish (10 cm in diameter) paved with cover glasses of 22 mm in diameter, and the medium was replacing with a FBS-free medium after 24 hours, and the cells were incubated in a serum starvation state for 48 hours. 10 μM of the lysophospholipid was added, and the cells were incubated at 37° C. for 30 minutes for stimulation. Then, the cells were fixed in the Dalbecco's PBS containing 3.7% of paraformaldehyde and 0.1% of Triton X-100 at room temperature for 10 minutes. Thereafter, the cells were stained with 5 units/ml of rhodamine phalloidin (made by Funakoshi) at 37° C. for 1 hour. The cover glasses were washed with PBS thrice, and observation was carried out by a cofocus laser microscope TCS NT Control laser Scanning Microscope (made by Leica).
The product obtained by the A sp362-derived PLD reaction was studied with respect to its biochemical activity in order to confirm further that it was a compound which is identical to cPA. Namely, the activity of forming actin stress fiber in a fibroblast cell, one of the physiological acteivities of cPA, was studied. To NIH-3T3, i.e. a fibroblast cell line derived from mouse, in the subconfluent state in the serum starvation state, each 10 μM of LPA, a chemically synthesized PHYLPA, or cPA, i.e. the PLD reaction product was added at 37° C. for 30 minutes, and then actin stress fiber was stained with Rhodamine phalloidin, and observation was carried out.

[2] = test system: primary cultured nerve cells derived from a hippocampus of a rat fetal brain; assay: Influence of P13K inhibitors on the increase of nerve cell survival rate by cPA; settings: 10 μM, nerve cell culture with cPA, 48 hours
Protocol: Wortmannin (made by Sigma) and LY294002 (made by Sigma), which are inhibitors against phosphatidyl inositol 3-kinase (P13K), were dissolved in DMSO at the concentration of 10 mM and 50 mM respectively, and diluted with PBS. Each of the solutions was added to the cell culture solution at the respective final concentrations of 30 nM and 10 μM. The inhibitors were added to the cell culture solution at 2 hours prior to the addition of cPA, to carry out pretreatment. The cells were photographed at 48 hours after the addition of cPA, and the survival of the cells was morphologically judged on judged on the photographs to calculate the survival rate.

[3] = test system: primary cultured nerve cells derived from a hippocampus of a rat fetal brain; assay: Measurement of the elongation of neurites
Protocol: (§1) (A-1) Preparation and Culturing of the Primary Cultured Nerve Cells Derived From a Hippocampus of a Rat Fetal Brain
(§2) Sprague-Dowley rat with 16 days of pregnancy were used as material. The rat were anesthetized with ether, from which the fetal was taken out. The whole brain was taken out under a stereomicroscope, and a hippocampus inside the cerebral cortex was picked out. The picked out hippocampus was collected in a 15 ml centrifuging tube, and 0.5 ml of 2.5% trypsin and a culture solution was added to be a 5 ml solution. The mixture was incubated at 37° C. for 15 minutes and then centrifuged at 3,000 rpm for 15 minutes. The supernatant was removed, 5 ml of the culture solution was added, and the mixture was centrifuged at 3,000 rpm for 15 minutes. The procedure was additionally repeated twice. After adding 3-5 ml of the culture solution, the resultant was pipetted with a Pasteur pipette and then with an injection needle (TERUMO NEEDLE (0.70×38 mm); made by Terumo). The cells, which were finally dissociated through a cell strainer (FALCON Cell Strainer 70 μm; made by FALCON), were primarily cultured on a plate. A culture liquid and a method for coating a plate which allow the nerve cells to be cultured without aggregation, were studied.
(A-3) Measurement of the Elongation of Neurites
In order to study the influence of cPA on the elongation of neurites, the cells were primarily cultured according to the method as described in (A-1), and were photographed at 12, 18 and 24 hours after the start of the culture. The average length of neurites per cell and the number of cells having the neurite at respective time points were analyzed by an image analysis software (NIH Image 1.62).
5 μM of oleoyl cPA was added to the cell culture solution, and the cells were photographed after 24, 48, and 72 hours. The average length of neurites per cell was analyzed by the analysis with the image analysis software (NIH Image 1.62). […] The effect was strongest after 24 hours, as compared with those after 48 hours (1.5 times) and 72 hours (1.2 times) (FIG. 10(a)). Thus, it was considered that the evaluation of the action of cPA on the elongation of neurites at earlier time points was necessary, and the effect of cPA at various levels on the elongation of neurites was studied at 12, 18 and 24 hours after addition. As the result, at the time point after 12 hours, the elongation of neurites in the sample to which cPA of 1.0 μM was added became about 1.7 times that of the control, and gave the maximum value (FIG. 10(b)).

[4] = test system: primary cultured nerve cells derived from a hippocampus of a rat fetal brain; assay: Survival rate of primary cultured nerve cells derived from rat fetal hippocampus
Protocol: as §1
as §2, with “studied. […]” for “studied.”

Compound: CCCCCC[C@@H]1C[C@@H]1CCCCCCCC(=O)OC[C@@H]1COP(=O)(O)O1 [PHYLPA]
- formation of actin stress fiber [1]: the formation of stress fibers was observed

Compound: O=c1cc(N2CCOCC2)oc2c(-c3ccccc3)cccc12 [LY294002]
- cytotoxicity (cell morphology) [2]: many cells were destroyed and deformed

Compound: lysophosphatidic acid [LPA]
- formation of actin stress fiber [1]: the formation of stress fibers was observed

Compound: nerve growth factor [NGF]
- elongation of neurites compared with that of 1.0 μM cPA (about 1.7 times control) ([3]; (optimal level), after 12 hours): comparable

Compound: CCCCCCCC/C=C\CCCCCCCC(=O)OCC1COP(=O)(O)O1 (stereo not shown) [oleoyl cPA, 1-oleoyl cyclic phosphatidic acid]
- formation of actin stress fiber [1]: the formation of stress fibers was observed
- survival of the cells compared with control without cPA addition ([4]; 5 μM, serum-free culture): the survival of the cells became better
- cPA level most effective for the cell survival ([4]; 0.5, 1.0, 5.0 or 10.0 μM tested, cell density 3.0×10^5 cells/cm^2): 1.0 µM
- ratio of cells having neurites ([3]; 1.0 μM, 24 hours after addition): high
- elongation of neurites relative to control (maximum value) ([3]; 1.0 μM, after 12 hours): about 1.7 times
- average length of neurites per cell relative to control ([3]; 5 μM, after 24 hours): twice longer than that of the control
- average length of neurites per cell relative to control ([3]; 5 μM, after 48 hours): 1.5 times
- average length of neurites per cell relative to control ([3]; 5 μM, after 72 hours): 1.2 times
- elongation of neurites compared with control without cPA addition ([3]; 5 μM, serum-free culture): the elongation of neurites was also observed
